The values that follow come from US20170246230A1, “PHARMACEUTICAL COMPOSITION FOR TREATING INFERTILITY, AND PREPARATION METHOD AND USE THEREOF” (priority 2014, published 2017).

What all share (assay type): in vivo, Kunming mice
For experiment [1], the system named is mice with sterility induced by androgens. The experiment can be described thus: Estradiol (E2) content in sera of mice with sterility induced by androgens (ELISA). As to conditions: 18 mg/kg intragastric, 4 weeks, TP-modelled female mice, serum.
Description: Blank control group: Intragastrically administrated with distilled water on daily basis at a dose of 2 ml/d;
Model control group: Intragastrically administrated with distilled water on daily basis and at a dose of 2 ml/d;
Irrigation was stopped for 48 h, orbital blood of mice was collected, serum was separated and enzyme linked immunosorbent assay was used to detect E2.
The test system is the same in experiment [2]. The experiment can be described thus: Quantities of follicles, oocytes and interstitial gland composition in ovary slices of androgen-sterile mice. As to conditions: 18 mg/kg intragastric, 4 weeks, TP-modelled mice. The procedure:
(§1) 120 Kunming female mice (20 days old) were randomly divided into 6 groups according to their weights and there were 20 in each group. 20 mice in the normal control group were subcutaneously injected with saline and the remaining 100 mice were used in modeling and subcutaneously injected with TP (testosterone propionate). The modeling method is described like this, 100 mice were subcutaneously injected with 0.06 mL TP (testosterone propionate), 4 d/time, continuous injection for 2 weeks and drug withdrawal for 1 weeks. Those mice after modelling were randomly divided into […], i.e. model control group, Clomifenecitrate capsules group and HDG (high-dose group), MDG (medium-dose group) and LDG (low-dose group) of the drug combination in the present invention.
(§2) After 4 weeks of administration, the drug was suspended for 48 h, 10 mice were executed in each group and the remaining 10 mice were left to carry out the conception rate test.
Mice were executed and their ovaries and uterus were removed. Ovaries were fixed with […] and tissue slices were observed under the ordinary optical microscope after the process of HE tinction and oil red 0 tinction. Uterus were fixed with 100 g/L formaldehyde and tissue slices were imbedded with paraffin and undergone the process of 4 μm slicing and ER marking. Light microscopy was used for observation after the hematoxylin counter staining.

Experiment [3] has the same test system. In words: Conception conditions of mated female mice after the medication. Particulars: 18 mg/kg, 4 weeks, 10 d after mating. The procedure: as §1, §2
To put 10 mice from each cage into the cage where 4 normally-matured male mice. 10 d after the mating, uterus of female mice were dissected to observe the conception conditions.

Regarding `CCN(CC)CCOc1ccc(C(=C(Cl)c2ccccc2)c2ccccc2)cc1` [Clomifenecitrate capsules, Clomifenecitrate], the E2 in experiment [1] is 12.76 ± 4.98 µg/L. For the same molecule, in experiment [2], the Interstitial gland composition is on record as 24.96 ± 5.00, the Quantity of follicles is on record as 37.6 ± 6.4 piece and the Quantity of oocytes was 8.7 ± 2.2 piece. For the same molecule, in experiment [3] (10 female mice), the Number of conception was found to be 6 mice. The Rate of conception in experiment [3] is 60.0%.
